In US6514952B1, “Hydantoin derivatives as inhibitors of leucocyte adhesion and as VLA-4 antagonists” (Hoechst Aktiengesellschaft, priority 1996, dated 2003):

target: T1, interaction between VCAM-1 and VLA-4 (Homo sapiens, UniProt P05556+P13612); test: U937/VCAM-1 cell adhesion test (adhesion of U937 cells to hVCAM-1(1-3)-IgG); format: cell-based; conditions: inhibition of adhesion of human U937 cells (ATCC CRL 1593) to hVCAM-1(1-3)-IgG
T1 construct: the VLA-4-integrins, are offered in their natural form as surface molecules on human U937 cells; host or cells: U937 cells (VLA-4, endogenous); hVCAM-1(1-3)-IgG from supernatant of transfected COS cells (ATCC CRL1651)
Excerpt: As a test method for the activity of the compounds of the formula I on the interaction between VCAM-1 and VLA-4, an assay is used which is specific for this interaction. The cellular binding components, i.e. the VLA-4-integrins, are offered in their natural form as surface molecules on human U937 cells (ATCC CRL 1593), which belong to the group of leucocytes. As specific binding components, recombinant soluble fusion proteins, prepared by genetic engineering and consisting of the extracytoplasmic domains of human VCAM-1 and the constant region of a human immunoglobulin of the subclass IgG1, are used.
Assay for the Measurement of the Adhesion of U937 Cells (ATCC CRL 1593) to hVCAM-1(1-3)-IgG
1. Preparation of Human VCAM-1(1-3)-IgG and Human CD4-IgG
A genetic construct for the expression of the extracellular domains of human VCAM-1 was employed, associated with the genetic sequence of the heavy chain of human immunoglobulin IgG1 (hinge, CH2 and CH3 regions), from Dr. Brian Seed, Massachusetts General Hospital, Boston, USA. The soluble fusion protein hVCAM-1(1-3)-IgG contained the throe amino-terminal extracellular immunoglobulin-like domains of human VCAM-1 (Damle and Aruffo, Proc. Natl. Acad. Sci. USA 1991, 88, 6403). CD4-IgG (Zettlmeissl et al., DNA and Cell Biology 1990, 9, 347) served as a fusion protein for negative controls. The recombinant proteins were expressed as soluble proteins after DEAE/dextran-mediated DNA-transfection in COS cells (ATCC CRL1651) according to standard procedures (Ausubel et al., Current protocols in molecular biology, John Wiley & Sons, Inc., 1994).
2. Assay for the Measurement of the Adhesion of U937 Cells to hVCAM-1(1-3)-IgG
2.1 96-well microtiter test plates (Nunc Maxisorb) were incubated at room temperature for 1 hour with 100 μl/well of a goat-anti-human IgG antibody solution (10 μg/ml in 50 mM Tris, pH 9.5). After removing the antibody solution, washing was carried out once with PBS.
2.2 150 μl/well of a blocking buffer (1% BSA in PBS) was incubated on the plates at room temperature for 0.5 hour. […]

T1 sequence (P13612 34-1032): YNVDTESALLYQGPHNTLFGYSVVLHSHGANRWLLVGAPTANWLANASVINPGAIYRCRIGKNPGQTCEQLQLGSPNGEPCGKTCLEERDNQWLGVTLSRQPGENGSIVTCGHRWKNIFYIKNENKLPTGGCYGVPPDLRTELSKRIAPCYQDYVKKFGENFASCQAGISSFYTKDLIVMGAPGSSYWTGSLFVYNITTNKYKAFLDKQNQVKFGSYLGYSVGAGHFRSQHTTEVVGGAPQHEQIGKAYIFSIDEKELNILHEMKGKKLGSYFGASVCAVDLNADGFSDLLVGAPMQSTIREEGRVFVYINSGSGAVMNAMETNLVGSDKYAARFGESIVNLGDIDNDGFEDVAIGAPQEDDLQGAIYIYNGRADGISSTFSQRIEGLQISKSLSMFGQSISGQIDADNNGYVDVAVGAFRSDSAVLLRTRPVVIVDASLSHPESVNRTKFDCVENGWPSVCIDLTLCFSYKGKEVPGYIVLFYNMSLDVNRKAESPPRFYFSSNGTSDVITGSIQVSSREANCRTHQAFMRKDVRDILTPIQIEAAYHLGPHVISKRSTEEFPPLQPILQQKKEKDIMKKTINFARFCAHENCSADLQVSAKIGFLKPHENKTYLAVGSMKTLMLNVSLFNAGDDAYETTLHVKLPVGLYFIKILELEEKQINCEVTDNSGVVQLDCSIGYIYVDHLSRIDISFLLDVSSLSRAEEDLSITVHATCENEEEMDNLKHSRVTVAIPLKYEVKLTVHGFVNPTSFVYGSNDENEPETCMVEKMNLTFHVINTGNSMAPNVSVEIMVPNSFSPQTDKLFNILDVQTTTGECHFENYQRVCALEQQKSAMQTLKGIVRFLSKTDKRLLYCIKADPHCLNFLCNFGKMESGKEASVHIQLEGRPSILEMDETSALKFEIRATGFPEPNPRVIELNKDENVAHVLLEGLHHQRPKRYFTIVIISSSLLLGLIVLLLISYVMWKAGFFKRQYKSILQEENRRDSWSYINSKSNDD
T1 sequence (P05556 21-798): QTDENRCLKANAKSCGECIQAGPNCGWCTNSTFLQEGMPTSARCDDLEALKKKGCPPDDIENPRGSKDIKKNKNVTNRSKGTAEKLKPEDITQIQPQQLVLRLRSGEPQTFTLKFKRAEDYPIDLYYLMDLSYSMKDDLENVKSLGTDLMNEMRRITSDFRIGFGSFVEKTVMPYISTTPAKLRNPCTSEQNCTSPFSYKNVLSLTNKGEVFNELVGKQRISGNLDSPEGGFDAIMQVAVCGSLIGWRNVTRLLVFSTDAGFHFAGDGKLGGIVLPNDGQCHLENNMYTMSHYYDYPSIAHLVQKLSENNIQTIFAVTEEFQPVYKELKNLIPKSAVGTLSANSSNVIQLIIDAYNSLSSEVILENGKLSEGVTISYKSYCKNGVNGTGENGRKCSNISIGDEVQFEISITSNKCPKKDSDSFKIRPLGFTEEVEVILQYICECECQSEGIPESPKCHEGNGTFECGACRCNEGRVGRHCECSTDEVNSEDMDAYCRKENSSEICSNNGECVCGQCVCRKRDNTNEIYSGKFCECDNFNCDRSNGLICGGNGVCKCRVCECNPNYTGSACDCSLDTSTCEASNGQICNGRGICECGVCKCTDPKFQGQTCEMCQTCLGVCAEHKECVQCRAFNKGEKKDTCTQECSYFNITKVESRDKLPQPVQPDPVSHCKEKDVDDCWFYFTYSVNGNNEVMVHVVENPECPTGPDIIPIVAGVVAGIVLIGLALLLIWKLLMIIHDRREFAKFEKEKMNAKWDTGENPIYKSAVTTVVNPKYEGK

In order of falling IC50:
1. CC1(c2ccc(C3=NCCN3)cc2)C(=O)N(CC(=O)NC[C@H](NC(=O)OCC23CC4CC(CC(C4)C2)C3)C(=O)O)C(=O)N1Cc1ccc2ccccc2c1 (stereo partly drawn) [Example 3, (S)-3-(((R,S)-4-(4-(4,5-Dihydro-2-imidazolyl)phenyl)-3-(2-naphthylmethyl)-4-methyl-2,5-dioxoimidazolidin-1-yl)acetylamino)-2-(1-adamantyl-methyloxycarbonylamino)propionic Acid]  40 µM
2. CC1(c2ccc(C3=NCCN3)cc2)C(=O)N(CC(=O)N[C@@H](CC(=O)O)C(=O)N[C@H](C(=O)O)c2ccccc2)C(=O)N1Cc1ccc2ccccc2c1 (stereo partly drawn) [Example 2, ((R,S)-4-(4-(4,5-Dihydro-2-imidazolyl)phenyl)-3-(2-naphthylmethyl)-4-methyl-2,5-dioxoimidazolidin-1-yl)acetyl-L-aspartyl-L-phenylglycine]  14.5 µM
3. CC1(c2ccc(C(N)=O)cc2)C(=O)N(CC(=O)N[C@@H](CC(=O)O)C(=O)N[C@H](C(=O)O)c2ccccc2)C(=O)N1Cc1ccccc1 (stereo partly drawn) [Example 1]  7.5 µM
